US6242444A, “Compounds and pharmaceutical compositions containing the same” (The Jordanian Pharmaceutical Manufacturing and Medical …, priority 1999, dated 2001)

Experiments:
Type in all cases: in vivo, rat
male rats = assay: Penile erection study in male rats after oral administration (responding rats, ED50, erection episodes, penile erection index); settings: for responding rats, # / responding rats, %: 10 rats tested, 2 h observation; for copulation mounting behaviour: 0.0781-0.625 mg/kg
Procedure: The purpose of this study was to compare the biological activity of compound 7a with that of sildenafil. In particular, the respective ED50 -value (ED=effective dose), erection episodes and penile erection indices of said compounds in the treatment of male rats were determined. The penile erection index is an established means of determining the erection promoting properties of a substance (see e.g. Ang, H. H., Sim, M. K., Pharm. Sci., 3, 117-119 (1997) and references cited therein).
In these experiments, the compounds 7a and sildenafil were administered to male rats orally. The doses used for both drugs were 0.0781, 0.1562, 0.3125 and 0.625 mg/kg body weight. Sildenafil was dissolved in distilled water, whereas 7a was dissolved in 1% HCl solution (aq). Control animals were administered with the vehicles only, i.e. distilled water or the 1% HCl solution. During the experiments, the rats were placed in glass cages for observation and had access to food and water. During 2 h after administration of the investigated compounds, the penile erection of the rats was monitored.

rats = assay: Preliminary toxicity studies in rats
Procedure: (§1) Moreover, according to preliminary toxicity studies in rats, the compound 7a is tolerated up to a dose of about […] body weight without any detrimental effects. […] Thus, high doses of 7a provide a particularly efficient means for treatment of erectile dysfunction.

[1] = Preliminary toxicity studies in rats; settings: rat, in vivo, read-out: tolerated dose without any detrimental effects
Procedure: as §1

Row | Structure (SMILES) | responding rats, # (male rats; dose 0.0781 mg/kg oral) | responding rats, % (male rats; dose 0.0781 mg/kg oral) [%] | responding rats, # (male rats; dose 0.1562 mg/kg oral) | responding rats, % (male rats; dose 0.1562 mg/kg oral) [%] | responding rats, # (male rats; dose 0.3125 mg/kg oral) | responding rats, % (male rats; dose 0.3125 mg/kg oral) [%] | responding rats, # (male rats; dose 0.6250 mg/kg oral) | responding rats, % (male rats; dose 0.6250 mg/kg oral) [%] | copulation mounting behaviour (male rats; male rats, oral) | toxicity and side-effects (in words) (rats) | NOAEL [1] [mg/kg] | number of erection episodes and penile erection indices (in words) (male rats; male rats, oral, 7a vs sildenafil, FIGS. 1 and 2) | ED50 of 7a compared with sildenafil (in words) (male rats; male rats, oral, 7a vs sildenafil, 95% confidence interval)
1 | CCCc1nn(C)c2c(=O)[nH]c(-c3cc(S(=O)(=O)N4CCN(C)CC4)ccc3OCC)nc12 [Sildenafil, reference compound] | 3 # | 30 | 3 # | 30 | 5 # | 50 | 7 # | 70 | no copulation mounting behaviour was observed |  |  |  | 
2 | CCCc1nn(C)c2c(=O)[nH]c(-c3cc(S(=O)(=O)N4CCN(C)CC4)cc4c3OCC4)nc12 [Compound 7a, 5-[2,3-dihydro-5-(4-methylpiperazin-1-ylsulfonyl)-7-benzofuryl]-1-methyl-3-propyl-6,7-dihydro-1H-pyrazolo[4,3-d]pyrimidin-7-one] | 3 # | 30 | 4 # | 40 | 4 # | 40 | 8 # | 80 | no copulation mounting behaviour was observed | completely non-toxic and free from undesirable side-effects | ~0.35 | superior to sildenafil, especially at higher doses | lower than that of sildenafil
